Measurements from PMC9653409, “Generative deep learning enables the discovery of a potent and selective RIPK1 inhibitor” (Nature Communications, 2022).

Assays:
Assay in all cases: Kinase inhibitory activity profiling of RI-962@10 µM (406 kinases, Eurofins)
Format in all cases: biochemical
[1] = molecular target: panel of human kinases (kinase named in endpoint) (Homo sapiens, UniProt Q16512); settings: 10 µM; read-out: Activity (%), PRK1(h)
Procedure, shortened: (§1)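 Radiometric filter-binding kinase assays: enzyme preincubated 15 min with compound in 8 mM MOPS pH 7.0, 0.2 mM EDTA, 250 μM peptide substrate, 10 mM magnesium acetate, 10 μM [γ-33P]-ATP. Reaction started with Mg/ATP, run 40 min at room temperature, stopped with phosphoric acid; 33P incorporation read by scintillation counting. Other kinases by similar protocols.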

[2] = molecular target: panel of human kinases (kinase named in endpoint) (Homo sapiens, UniProt Q9UKI8); settings: 10 µM; read-out: Activity (%), TLK1(h)
Procedure, shortened: as §1

[3] = molecular target: panel of human kinases (kinase named in endpoint) (Homo sapiens, UniProt Q16654); settings: 10 µM; read-out: Activity (%), PDHK4(h)
Procedure, shortened: as §1

[4] = molecular target: panel of human kinases (kinase named in endpoint) (Homo sapiens, UniProt O00238); settings: 10 µM; read-out: Activity (%), ALK6(h)
Procedure, shortened: as §1

[5] = molecular target: panel of human kinases (kinase named in endpoint) (Homo sapiens, UniProt P36888, D835Y); settings: 10 µM; read-out: Activity (%), Flt3(D835Y)(h)
Procedure, shortened: as §1

[6] = molecular target: panel of human kinases (kinase named in endpoint) (Homo sapiens, UniProt P21802); settings: 10 µM; read-out: Activity (%), FGFR2(h)
Procedure, shortened: as §1

[7] = molecular target: panel of human kinases (kinase named in endpoint) (Homo sapiens, UniProt P10398); settings: 10 µM; read-out: Activity (%), A-Raf(h)
Sequence of panel of human kinases (kinase named in endpoint) (Homo sapiens, UniProt P10398) (P10398 whole entry): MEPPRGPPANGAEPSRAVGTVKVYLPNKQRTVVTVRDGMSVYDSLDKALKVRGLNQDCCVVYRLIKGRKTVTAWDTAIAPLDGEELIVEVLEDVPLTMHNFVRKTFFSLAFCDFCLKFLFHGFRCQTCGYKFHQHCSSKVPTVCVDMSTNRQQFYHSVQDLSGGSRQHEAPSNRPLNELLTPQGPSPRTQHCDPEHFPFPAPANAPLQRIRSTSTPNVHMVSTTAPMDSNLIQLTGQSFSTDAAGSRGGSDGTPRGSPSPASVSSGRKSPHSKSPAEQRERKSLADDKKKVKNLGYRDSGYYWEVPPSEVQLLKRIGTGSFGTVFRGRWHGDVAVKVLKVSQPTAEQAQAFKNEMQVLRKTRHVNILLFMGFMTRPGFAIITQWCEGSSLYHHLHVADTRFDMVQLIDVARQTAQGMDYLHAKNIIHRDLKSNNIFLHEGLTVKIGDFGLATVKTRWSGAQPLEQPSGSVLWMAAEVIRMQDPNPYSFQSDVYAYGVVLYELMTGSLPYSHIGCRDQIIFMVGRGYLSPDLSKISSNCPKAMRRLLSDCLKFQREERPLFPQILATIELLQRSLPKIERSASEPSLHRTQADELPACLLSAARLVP
Procedure, shortened: as §1

[8] = molecular target: panel of human kinases (kinase named in endpoint) (Homo sapiens, UniProt Q5S007); settings: 10 µM; read-out: Activity (%), LRRK2(h)
Procedure, shortened: as §1

[9] = molecular target: panel of human kinases (kinase named in endpoint) (Homo sapiens, UniProt Q07912); settings: 10 µM; read-out: Activity (%), ACK1(h)
Procedure, shortened: as §1

[10] = molecular target: panel of human kinases (kinase named in endpoint) (Homo sapiens, UniProt P30291); settings: 10 µM; read-out: Activity (%), Wee1(h)
Procedure, shortened: as §1

[11] = molecular target: panel of human kinases (kinase named in endpoint) (Homo sapiens, UniProt O75716); settings: 10 µM; read-out: Activity (%), STK16(h)
Procedure, shortened: as §1

[12] = molecular target: panel of human kinases (kinase named in endpoint) (Homo sapiens, UniProt P53778); settings: 10 µM; read-out: Activity (%), SAPK3(h)
Procedure, shortened: as §1

[13] = molecular target: panel of human kinases (kinase named in endpoint) (Homo sapiens, UniProt Q9P0L2); settings: 10 µM; read-out: Activity (%), MARK1(h)
Sequence of panel of human kinases (kinase named in endpoint) (Homo sapiens, UniProt Q9P0L2) (Q9P0L2 whole entry): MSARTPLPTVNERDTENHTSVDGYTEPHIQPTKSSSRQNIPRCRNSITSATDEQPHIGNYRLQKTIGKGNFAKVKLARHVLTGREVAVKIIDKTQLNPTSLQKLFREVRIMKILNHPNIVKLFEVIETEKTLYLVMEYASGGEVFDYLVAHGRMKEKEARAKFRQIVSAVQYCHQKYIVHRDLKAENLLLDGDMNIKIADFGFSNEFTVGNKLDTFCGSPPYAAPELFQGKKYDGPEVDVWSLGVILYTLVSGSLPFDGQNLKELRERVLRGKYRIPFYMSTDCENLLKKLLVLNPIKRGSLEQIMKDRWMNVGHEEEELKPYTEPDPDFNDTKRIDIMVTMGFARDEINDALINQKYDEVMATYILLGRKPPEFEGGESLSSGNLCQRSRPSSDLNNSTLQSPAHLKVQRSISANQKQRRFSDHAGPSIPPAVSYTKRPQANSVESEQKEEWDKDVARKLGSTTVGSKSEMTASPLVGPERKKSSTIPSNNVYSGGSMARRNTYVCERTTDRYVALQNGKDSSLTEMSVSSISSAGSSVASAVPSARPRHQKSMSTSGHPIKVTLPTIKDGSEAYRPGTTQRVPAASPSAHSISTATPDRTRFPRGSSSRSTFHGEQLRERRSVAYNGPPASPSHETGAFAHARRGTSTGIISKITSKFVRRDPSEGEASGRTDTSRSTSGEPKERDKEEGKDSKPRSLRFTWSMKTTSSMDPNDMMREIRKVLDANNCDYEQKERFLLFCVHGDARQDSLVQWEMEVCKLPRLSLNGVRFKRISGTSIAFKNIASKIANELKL
Procedure, shortened: as §1

[14] = molecular target: panel of human kinases (kinase named in endpoint) (Homo sapiens, UniProt P29376); settings: 10 µM; read-out: Activity (%), LTK(h)
Procedure, shortened: as §1

[15] = molecular target: panel of human kinases (kinase named in endpoint) (Homo sapiens, UniProt Q8TDX7); settings: 10 µM; read-out: Activity (%), NEK7(h)
Procedure, shortened: as §1

[16] = molecular target: panel of human kinases (kinase named in endpoint) (Homo sapiens, UniProt P37173); settings: 10 µM; read-out: Activity (%), TGFBR2(h)
Procedure, shortened: as §1

[17] = molecular target: panel of human kinases (kinase named in endpoint) (Homo sapiens, UniProt P15056); settings: 10 µM; read-out: Activity (%), B-Raf(h)
Sequence of panel of human kinases (kinase named in endpoint) (Homo sapiens, UniProt P15056) (P15056 whole entry): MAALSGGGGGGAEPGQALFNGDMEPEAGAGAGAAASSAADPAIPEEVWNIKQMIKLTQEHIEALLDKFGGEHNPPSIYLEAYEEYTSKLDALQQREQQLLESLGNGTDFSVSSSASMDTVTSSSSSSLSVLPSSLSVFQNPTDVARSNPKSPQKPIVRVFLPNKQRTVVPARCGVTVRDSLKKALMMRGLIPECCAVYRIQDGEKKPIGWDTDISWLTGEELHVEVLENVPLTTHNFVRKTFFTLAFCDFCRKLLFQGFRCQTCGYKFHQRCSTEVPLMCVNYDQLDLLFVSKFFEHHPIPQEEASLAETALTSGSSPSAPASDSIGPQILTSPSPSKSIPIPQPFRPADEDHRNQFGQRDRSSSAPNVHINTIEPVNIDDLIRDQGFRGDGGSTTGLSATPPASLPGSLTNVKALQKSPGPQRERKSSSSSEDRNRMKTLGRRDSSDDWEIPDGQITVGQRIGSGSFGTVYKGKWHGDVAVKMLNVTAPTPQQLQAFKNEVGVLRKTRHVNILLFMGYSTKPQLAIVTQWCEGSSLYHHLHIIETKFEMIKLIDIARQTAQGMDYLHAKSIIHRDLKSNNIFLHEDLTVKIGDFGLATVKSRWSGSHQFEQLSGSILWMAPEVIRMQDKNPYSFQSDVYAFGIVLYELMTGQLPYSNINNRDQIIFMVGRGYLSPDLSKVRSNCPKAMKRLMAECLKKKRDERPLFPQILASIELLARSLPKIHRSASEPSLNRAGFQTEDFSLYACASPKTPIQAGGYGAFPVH
Procedure, shortened: as §1

[18] = molecular target: panel of human kinases (kinase named in endpoint) (Homo sapiens, UniProt Q9NWZ3); settings: 10 µM; read-out: Activity (%), IRAK4(h)
Procedure, shortened: as §1

[19] = molecular target: panel of human kinases (kinase named in endpoint) (Homo sapiens, UniProt O15264); settings: 10 µM; read-out: Activity (%), SAPK4(h)
Procedure, shortened: as §1

[20] = molecular target: panel of human kinases (kinase named in endpoint) (Homo sapiens, UniProt P35916); settings: 10 µM; read-out: Activity (%), Flt4(h)
Procedure, shortened: as §1

[21] = molecular target: panel of human kinases (kinase named in endpoint) (Homo sapiens, UniProt P11362); settings: 10 µM; read-out: Activity (%), FGFR1(h)
Sequence of panel of human kinases (kinase named in endpoint) (Homo sapiens, UniProt P11362) (P11362 22-822): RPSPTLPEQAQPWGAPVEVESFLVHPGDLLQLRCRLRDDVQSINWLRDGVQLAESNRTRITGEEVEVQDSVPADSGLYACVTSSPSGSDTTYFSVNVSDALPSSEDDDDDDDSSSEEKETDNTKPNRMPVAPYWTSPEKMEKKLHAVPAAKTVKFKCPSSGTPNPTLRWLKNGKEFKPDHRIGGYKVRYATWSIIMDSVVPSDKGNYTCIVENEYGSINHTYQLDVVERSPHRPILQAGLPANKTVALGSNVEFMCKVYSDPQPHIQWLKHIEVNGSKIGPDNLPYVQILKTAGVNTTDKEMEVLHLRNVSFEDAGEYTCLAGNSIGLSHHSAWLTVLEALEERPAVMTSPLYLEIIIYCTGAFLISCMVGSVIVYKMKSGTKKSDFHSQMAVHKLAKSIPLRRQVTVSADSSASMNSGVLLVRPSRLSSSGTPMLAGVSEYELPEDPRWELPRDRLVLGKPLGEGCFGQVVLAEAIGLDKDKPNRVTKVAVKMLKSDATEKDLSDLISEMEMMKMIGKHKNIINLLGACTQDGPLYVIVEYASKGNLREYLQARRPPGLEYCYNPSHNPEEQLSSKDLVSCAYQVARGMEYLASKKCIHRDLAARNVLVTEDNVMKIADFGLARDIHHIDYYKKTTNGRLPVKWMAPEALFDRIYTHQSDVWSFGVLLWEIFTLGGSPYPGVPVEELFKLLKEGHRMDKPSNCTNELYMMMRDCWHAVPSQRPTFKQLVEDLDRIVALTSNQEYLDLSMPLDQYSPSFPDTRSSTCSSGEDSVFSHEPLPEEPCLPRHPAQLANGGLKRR
Procedure, shortened: as §1

[22] = molecular target: panel of human kinases (kinase named in endpoint) (Homo sapiens, UniProt P06493); settings: 10 µM; read-out: Activity (%), CDK1/cyclinB(h)
Sequence of panel of human kinases (kinase named in endpoint) (Homo sapiens, UniProt P06493) (P06493 whole entry): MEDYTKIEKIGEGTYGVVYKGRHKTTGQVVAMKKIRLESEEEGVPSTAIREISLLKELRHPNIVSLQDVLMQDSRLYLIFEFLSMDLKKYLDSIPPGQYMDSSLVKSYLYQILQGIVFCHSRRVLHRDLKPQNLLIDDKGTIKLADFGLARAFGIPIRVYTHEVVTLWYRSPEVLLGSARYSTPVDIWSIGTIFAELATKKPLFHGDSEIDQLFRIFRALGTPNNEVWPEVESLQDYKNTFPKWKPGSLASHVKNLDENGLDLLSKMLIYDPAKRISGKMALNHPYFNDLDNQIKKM
Procedure, shortened: as §1

[23] = molecular target: panel of human kinases (kinase named in endpoint) (Homo sapiens, UniProt Q13555); settings: 10 µM; read-out: Activity (%), CaMKIIγ(h)
Procedure, shortened: as §1

[24] = molecular target: panel of human kinases (kinase named in endpoint) (Homo sapiens, UniProt Q8IZX4); settings: 10 µM; read-out: Activity (%), TAF1L(h)
Sequence of panel of human kinases (kinase named in endpoint) (Homo sapiens, UniProt Q8IZX4) (Q8IZX4 whole entry): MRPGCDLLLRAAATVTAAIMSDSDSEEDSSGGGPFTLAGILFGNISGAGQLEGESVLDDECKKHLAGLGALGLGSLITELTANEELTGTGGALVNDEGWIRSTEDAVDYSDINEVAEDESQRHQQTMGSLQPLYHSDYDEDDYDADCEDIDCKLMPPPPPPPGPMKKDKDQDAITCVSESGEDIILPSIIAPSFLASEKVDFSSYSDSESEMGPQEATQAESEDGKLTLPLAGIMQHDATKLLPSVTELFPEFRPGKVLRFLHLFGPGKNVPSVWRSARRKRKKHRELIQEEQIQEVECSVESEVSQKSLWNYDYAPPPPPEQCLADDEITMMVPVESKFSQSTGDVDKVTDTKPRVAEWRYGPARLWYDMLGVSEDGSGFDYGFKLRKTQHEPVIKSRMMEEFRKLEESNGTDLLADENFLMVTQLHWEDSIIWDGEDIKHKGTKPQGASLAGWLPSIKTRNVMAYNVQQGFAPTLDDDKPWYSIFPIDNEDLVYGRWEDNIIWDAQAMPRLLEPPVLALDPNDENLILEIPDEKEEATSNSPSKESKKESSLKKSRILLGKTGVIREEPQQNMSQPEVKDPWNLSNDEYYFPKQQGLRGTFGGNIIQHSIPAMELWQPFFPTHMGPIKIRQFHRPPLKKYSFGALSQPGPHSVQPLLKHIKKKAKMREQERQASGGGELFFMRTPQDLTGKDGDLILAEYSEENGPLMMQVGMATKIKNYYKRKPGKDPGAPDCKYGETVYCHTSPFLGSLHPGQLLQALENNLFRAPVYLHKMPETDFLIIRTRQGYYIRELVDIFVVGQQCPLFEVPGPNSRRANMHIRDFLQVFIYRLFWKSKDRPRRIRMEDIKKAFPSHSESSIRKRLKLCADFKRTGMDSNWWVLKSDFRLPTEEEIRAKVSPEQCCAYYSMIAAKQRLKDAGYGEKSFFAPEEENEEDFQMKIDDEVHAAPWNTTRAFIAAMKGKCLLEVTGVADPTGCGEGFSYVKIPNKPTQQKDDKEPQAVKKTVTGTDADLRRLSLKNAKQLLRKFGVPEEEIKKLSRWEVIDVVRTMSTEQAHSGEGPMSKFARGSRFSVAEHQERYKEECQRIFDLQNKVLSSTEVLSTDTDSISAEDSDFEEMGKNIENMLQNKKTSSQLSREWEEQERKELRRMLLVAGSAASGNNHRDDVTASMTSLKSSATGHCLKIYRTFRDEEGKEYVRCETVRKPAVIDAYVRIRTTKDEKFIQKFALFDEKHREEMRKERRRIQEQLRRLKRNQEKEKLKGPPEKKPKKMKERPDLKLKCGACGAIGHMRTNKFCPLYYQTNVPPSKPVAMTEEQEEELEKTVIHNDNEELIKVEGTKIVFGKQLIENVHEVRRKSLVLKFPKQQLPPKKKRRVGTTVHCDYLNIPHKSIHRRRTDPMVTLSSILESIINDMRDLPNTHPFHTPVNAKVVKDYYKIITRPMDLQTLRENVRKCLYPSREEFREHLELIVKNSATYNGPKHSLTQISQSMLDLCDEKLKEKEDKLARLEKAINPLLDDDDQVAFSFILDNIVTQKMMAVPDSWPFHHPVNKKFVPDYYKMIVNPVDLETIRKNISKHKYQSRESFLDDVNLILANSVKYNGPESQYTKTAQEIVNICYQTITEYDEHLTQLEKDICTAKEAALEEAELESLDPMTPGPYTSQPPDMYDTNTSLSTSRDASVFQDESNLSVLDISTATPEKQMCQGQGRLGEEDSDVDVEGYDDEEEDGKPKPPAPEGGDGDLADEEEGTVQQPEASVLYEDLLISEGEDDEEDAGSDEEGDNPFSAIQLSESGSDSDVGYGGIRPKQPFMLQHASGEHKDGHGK
Procedure, shortened: as §1

[25] = molecular target: panel of human kinases (kinase named in endpoint) (Homo sapiens, UniProt Q16620); settings: 10 µM; read-out: Activity (%), TrkB(h)
Procedure, shortened: as §1

[26] = molecular target: panel of human kinases (kinase named in endpoint) (Homo sapiens, UniProt P45984); settings: 10 µM; read-out: Activity (%), JNK2α2(h)
Procedure, shortened: as §1

**Q.** With `CC(C)C(=O)Nc1nc2cc(-c3ccc4c(c3)c(C(=O)NC(C)c3ccccc3)cn4C)ccn2n1` (centres unmarked) [RI-962] as the compound, how does the activity at 10 µM [1] read?
**A.** 109%

**Q.** And the activity at 10 µM [2]?
**A.** 69%

**Q.** And the activity at 10 µM [3]?
**A.** 75%

**Q.** What about the activity at 10 µM [4] of the same compound?
**A.** 95%

**Q.** And the activity at 10 µM [5]?
**A.** 88%

**Q.** And the activity at 10 µM [6]?
**A.** 107%

**Q.** And the activity at 10 µM [7]?
**A.** 80%

**Q.** And the activity at 10 µM [8]?
**A.** 102%

**Q.** And the activity at 10 µM [9]?
**A.** 100%

**Q.** And the activity at 10 µM [10]?
**A.** 92%

**Q.** What about the activity at 10 µM [11] of the same compound?
**A.** 100%

**Q.** And the activity at 10 µM [12]?
**A.** 100%

**Q.** What about the activity at 10 µM [13] of the same compound?
**A.** 99%

**Q.** And the activity at 10 µM [14]?
**A.** 100%

**Q.** What about the activity at 10 µM [15] of the same compound?
**A.** 85%

**Q.** And the activity at 10 µM [16]?
**A.** 94%

**Q.** What about the activity at 10 µM [17] of the same compound?
**A.** 99%

**Q.** What about the activity at 10 µM [18] of the same compound?
**A.** 79%

**Q.** What about the activity at 10 µM [19] of the same compound?
**A.** 91%

**Q.** And the activity at 10 µM [20]?
**A.** 86%

**Q.** And the activity at 10 µM [21]?
**A.** 81%

**Q.** What about the activity at 10 µM [22] of the same compound?
**A.** 99%

**Q.** What about the activity at 10 µM [23] of the same compound?
**A.** 93%

**Q.** And the activity at 10 µM [24]?
**A.** 89%

**Q.** And the activity at 10 µM [25]?
**A.** 126%

**Q.** What about the activity at 10 µM [26] of the same compound?
**A.** 71%
